± gives the expanded uncertainty stated by the source.

In general, surface tension liquid-gas refers to the force per length acting along the surface. What is called mass density is mass per unit of volume.

For data set [1] the following is noted: for surface tension liquid-gas: Pendant drop shape; for mass density: 101.33 kPa, Liquid, Pycnometric method.
The conditions of data set [2]: 293.15 K; 101 kPa; Liquid mixture 1; pendant drop method.

As to `CCCCCCCC[N+](C)(CCCCCCCC)CCCCCCCC.O=S(=O)([N-]S(=O)(=O)C(F)(F)F)C(F)(F)F`, in data set [1] (293.15 K), the surface tension liquid-gas is 22.77 ± 0.43 mN/m.

On to `CCCCCCCCn1cc[n+](C)c1.O=S(=O)([N-]S(=O)(=O)C(F)(F)F)C(F)(F)F`, for which, in data set [1] (293.15 K), the surface tension liquid-gas was determined as 30.55 ± 0.56 mN/m and the mass density is given as 1340 ± 4 kg/m3.

Regarding `CCCCCCN(CCCCCC)C(N(C)C)=[N+](CCCCCC)CCCCCC.N#C[N-]C#N`, the surface tension liquid-gas in data set [1] (293.15 K) is listed as 21.35 ± 0.49 mN/m.

As to `CCCCCCN(CCCCCC)C(N(C)C)=[N+](CCCCCC)CCCCCC.[Cl-]`, the surface tension liquid-gas in data set [1] (293.15 K) worked out at 28.95 ± 0.57 mN/m. The mass density in data set [1] (298.15 K) is listed as 943 ± 50 kg/m3.

As to `CCCC[n+]1ccn(C)c1.O=S(=O)([N-]S(=O)(=O)C(F)(F)F)C(F)(F)F`, in data set [1] (293.15 K), the mass density amounted to 1452 ± 13 kg/m3. Moreover, the surface tension liquid-gas in data set [1] (298.15 K) was determined as 38.37 ± 0.69 mN/m.

As for `CCCCn1cc[n+](C)c1C.O=S(=O)([N-]S(=O)(=O)C(F)(F)F)C(F)(F)F`, in data set [1] (293.15 K), the surface tension liquid-gas is 26.66 ± 0.49 mN/m and the mass density came out at 1425 ± 24 kg/m3.

In the case of `CCCCCCCCn1cc[n+](C)c1.O=S(=O)([N-]S(=O)(=O)C(F)(F)F)C(F)(F)F` + O, the interfacial tension in data set [2] is listed as 22.81 ± 0.41 mN/m.

Take `CCCC[n+]1ccn(C)c1.O=S(=O)([N-]S(=O)(=O)C(F)(F)F)C(F)(F)F` + O: the interfacial tension in data set [2] came to 15.15 ± 0.55 mN/m.

Regarding `CCCCn1cc[n+](C)c1C.O=S(=O)([N-]S(=O)(=O)C(F)(F)F)C(F)(F)F` + O, the interfacial tension in data set [2] is on record as 17.04 ± 1.3 mN/m.

For the compound `OCCO` [1,2-ethanediol], the mass density in data set [1] (293.15 K) stood at 1121 ± 7 kg/m3.

Regarding `COCCn1cc[n+](C)c1.F[B-](F)(F)F` [1-(2-methoxyethyl)-3-methyl-imidazolium tetrafluoroborate], in data set [1] (293.15 K), the surface tension liquid-gas is 35.31 ± 0.64 mN/m and the mass density is given as 1306 ± 7 kg/m3.

For `CCCCn1cc[n+](C)c1.N#CN=C=[N-]` [1-butyl-3-methylimidazolium dicyanamide], in data set [1] (293.15 K), the surface tension liquid-gas came to 38.14 ± 0.68 mN/m and the mass density came out at 1066 ± 10 kg/m3.

`CCCCn1cc[n+](C)c1.F[B-](F)(F)F` [1-butyl-3-methylimidazolium tetrafluoroborate]: the surface tension liquid-gas in data set [1] (293.15 K) was 44.28 ± 0.79 mN/m. Besides, the mass density in data set [1] (293.15 K) was 1212 ± 5 kg/m3; in data set [1] (298.15 K), 1217 ± 12 kg/m3.

Take `CCCCCCCCCCn1cc[n+](C)c1.N#C[N-]C#N` [1-decyl-3-methylimidazolium dicyanamide]: in data set [1] (293.15 K), the surface tension liquid-gas is recorded as 31.15 ± 0.57 mN/m and the mass density worked out at 1003 ± 5 kg/m3.

As to `CCCCCCCCCCn1cc[n+](C)c1.F[B-](F)(F)F` [1-decyl-3-methylimidazolium tetrafluoroborate], in data set [1] (293.15 K), the surface tension liquid-gas is on record as 23.65 ± 0.48 mN/m and the mass density is recorded as 1076 ± 3 kg/m3.

For `CCOS(=O)(=O)[O-].CCn1cc[n+](C)c1` [1-ethyl-3-methylimidazolium ethyl sulfate], in data set [1] (293.15 K), the surface tension liquid-gas stood at 46.13 ± 0.91 mN/m and the mass density amounted to 1242 ± 4 kg/m3.

For the compound `CCCCCCCC[n+]1ccn(C)c1.[Cl-]` [1-methyl-3-octylimidazolium chloride], in data set [1] (293.15 K), the surface tension liquid-gas was 26.2 ± 0.57 mN/m and the mass density is on record as 971 ± 6 kg/m3.

`CCCCCCCC[n+]1ccn(C)c1.F[B-](F)(F)F` [1-methyl-3-octylimidazolium tetrafluoroborate]: in data set [1] (293.15 K), the surface tension liquid-gas was determined as 33.22 ± 0.6 mN/m and the mass density is 1110 ± 5 kg/m3. In data set [1] (298.15 K), the mass density amounted to 1115 ± 46 kg/m3.

In the case of `Cn1cc[n+](CCO)c1.N#C[N-]C#N` [3-(2-hydroxyethyl)-1-methyl-1H-imidazol-3-ium dicyanoazanide], in data set [1] (293.15 K), the surface tension liquid-gas is reported as 45.75 ± 0.81 mN/m and the mass density is reported as 1179 ± 3 kg/m3.

As to `CCCCCCCCn1cc[n+](C)c1.N#C[N-]C#N` [3-methyl-1-octylimidazolium dicyanamide], in data set [1] (293.15 K), the surface tension liquid-gas is recorded as 36.86 ± 0.66 mN/m and the mass density worked out at 1013 ± 3 kg/m3.

As to `CCCCCCCC[N+](C)(CCCCCCCC)CCCCCCCC.N#C[N-]C#N` [N,N,N-trioctyl-N-methylammonium dicyanamide], the surface tension liquid-gas in data set [1] (293.15 K) came out at 28.8 ± 0.53 mN/m. In addition, the mass density in data set [1] (298.15 K) came out at 890 ± 3 kg/m3.

Take `CCCCCCCC[N+](C)(CCCCCCCC)CCCCCCCC.[Cl-]` [N-methyl-N,N-dioctyl-1-octanaminium chloride]: the surface tension liquid-gas in data set [1] (293.15 K) was 26.44 ± 0.49 mN/m. Also, the mass density was determined as 891 ± 6 kg/m3 in data set [1] (293.15 K) and 896 ± 18 kg/m3 in data set [1] (298.15 K).

Regarding `CCCCCCCC[N+](C)(CCCCCCCC)CCCCCCCC.[Cl-]` [N-methyl-N,N-dioctyl-1-octanaminium chloride] + O, the interfacial tension in data set [2] is on record as 3.66 ± 0.36 mN/m.

Regarding `ClCCl` [dichloromethane], the mass density in data set [1] (293.15 K) is given as 1327 ± 9 kg/m3.

With `CCCCCCCCO` [octan-1-ol], the mass density in data set [1] (293.15 K) is 831 ± 3 kg/m3.

Turning to `CCCCCCCCO` [octan-1-ol] + O, in data set [2], the interfacial tension amounted to 8.3 ± 0.5 mN/m.

As to `CCCCCCCCCCCCCC[P+](CCCCCC)(CCCCCC)CCCCCC.N#C[N-]C#N` [tetradecyl(trihexyl)phosphonium dicyanamide], the surface tension liquid-gas in data set [1] (293.15 K) stood at 30.99 ± 0.61 mN/m.

For the compound `CCCCCCCCCCCCCC[P+](CCCCCC)(CCCCCC)CCCCCC.Cc1ccc(S(=O)(=O)[O-])cc1` [tetradecyl(trihexyl)phosphonium tosylate], the surface tension liquid-gas in data set [1] (293.15 K) is on record as 23.2 ± 0.53 mN/m. Besides, the mass density in data set [1] (298.15 K) is given as 1003 ± 22 kg/m3.

On to `CCCCCCCCCCCCCC[P+](CCCCCC)(CCCCCC)CCCCCC.[Cl-]` [trihexyl(tetradecyl)phosphonium chloride], for which, in data set [1] (293.15 K), the surface tension liquid-gas was 30.7 ± 0.56 mN/m and the mass density turned out to be 918 ± 6 kg/m3.

On to `CCCCCCCCCCCCCC[P+](CCCCCC)(CCCCCC)CCCCCC.[Cl-]` [trihexyl(tetradecyl)phosphonium chloride] + O, for which, in data set [2], the interfacial tension worked out at 6.11 ± 0.17 mN/m.

As to `O` [water], in data set [1] (293.15 K), the mass density is listed as 1013 ± 5 kg/m3.

(Values after the NIST ThermoML archive (doi:10.1021/je900502s).)
